The source of these data is patent US8604044B2, “Quinazoline based EGFR inhibitors containing a zinc binding moiety” (Curis, Inc., priority 2006, dated 2013).

Broadly, the IC50 is the point on the concentration scale where inhibition reaches its midpoint.

This assay deals with HDAC. The assay can be described thus: HDAC fluorimetric assay (HDAC enzymatic activity, HeLa nuclear extract). As to conditions: HeLa nuclear extract; read-out: HDAC IC50 grading. The format is biochemical. How it is done: HDAC inhibitors were screened using an HDAC fluorimetric assay kit (AK-500, Biomol, Plymouth Meeting, Pa.).
Each assay was setup as follows: Defrosted all kit components and kept on ice until use. […] Prepared dilutions of Trichostatin A (TSA, positive control) and tested compounds in assay buffer (5× of final concentration). Diluted Fluor de Lys™ Substrate in assay buffer to 100 uM (50 fold=2× final). Diluted Fluor de Lys™ developer concentrate 20-fold (e.g. 50 μl plus 950 μl Assay Buffer) in cold assay buffer. Second, diluted the 0.2 mM Trichostatin A 100-fold in the 1× Developer (e.g. 10 μl in 1 ml; final Trichostatin A concentration in the 1× Developer=2 μM; final concentration after addition to HDAC/Substrate reaction=1 μM). Added Assay buffer, diluted trichostatin A or test inhibitor to appropriate wells of the microtiter plate. Added diluted HeLa extract or other HDAC sample to all wells except for negative controls.

In the case of `COc1cc2ncnc(Nc3ccc(F)c(Cl)c3)c2cc1OCC(=O)NO` [Compound 1, 2-(4-(3-Chloro-4-fluorophenylamino)-7-methoxyquinazolin-6-yloxy)-N-hydroxyacetamide], the IC50 is above 10000 nM.
Regarding `COc1cc2ncnc(Nc3ccc(F)c(Cl)c3)c2cc1OCCC(=O)NO` [Compound 2], the IC50 was above 10000 nM.
Turning to `COc1cc2ncnc(Nc3ccc(F)c(Cl)c3)c2cc1OCCCC(=O)NO` [Compound 3, 4-(4-(3-Chloro-4-fluorophenylamino)-7-methoxyquinazolin-6-yloxy)-N-hydroxybutanamide], the IC50 is above 10000 nM.
For `COc1cc2ncnc(Nc3ccc(F)c(Cl)c3)c2cc1OCCCCC(=O)NO` [Compound 4] the value was 100 to 1000 nM.
For `COc1cc2ncnc(Nc3ccc(F)c(Cl)c3)c2cc1OCCCCCC(=O)NO` [Compound 5] the value was below 100 nM.
On to `C#Cc1cccc(Nc2ncnc3cc(OC)c(OCCC(=O)NO)cc23)c1` [Compound 8], for which the IC50 was above 10000 nM.
For `C#Cc1cccc(Nc2ncnc3cc(OC)c(OCCCC(=O)NO)cc23)c1` [Compound 9, 4-(4-(3-ethynylphenylamino)-7-methoxyquinazolin-6-yloxy)-N-hydroxybutanamide] the value was 100 to 1000 nM.
For `C#Cc1cccc(Nc2ncnc3cc(OC)c(OCCCCC(=O)NO)cc23)c1` [Compound 10, 5-(4-(3-Ethynylphenylamino)-7-methoxyquinazolin-6-yloxy)-N-hydroxypentanamide] the value was 100 to 1000 nM; for `O=C(COc1ccc2ncnc(Nc3ccc(F)c(Cl)c3)c2c1)NO` [Compound 13, 2-(4-(3-chloro-4-fluorophenylamino)quinazolin-6-yloxy)-N-hydroxyacetamide], above 10000 nM; for `O=C(CCOc1ccc2ncnc(Nc3ccc(F)c(Cl)c3)c2c1)NO` [Compound 14], 1000 to 10000 nM.
With `O=C(CCCCCOc1ccc2ncnc(Nc3ccc(F)c(Cl)c3)c2c1)NO` [Compound 17, 6-(4-(3-Chloro-4-fluorophenylamino)quinazolin-6-yloxy)-N-hydroxyhexanamide] the figure was below 100 nM; with `C#Cc1cccc(Nc2ncnc3ccc(OCCCCC(=O)NO)cc23)c1` [Compound 22], below 100 nM; with `C#Cc1cccc(Nc2ncnc3ccc(OCCCCCCC(=O)NO)cc23)c1` [Compound 24, 7-(4-(3-ethynylphenylamino)quinazolin-6-yloxy)-N-hydroxyheptanamide], below 100 nM.
`C#Cc1cccc(Nc2ncnc3cc(OCCOC)c(OCCCCCCC(=O)NO)cc23)c1` [Compound 36, 7-(4-(3-Ethynylphenylamino)-7-(2-methoxyethoxy)quinazolin-6-yloxy)-N-hydroxyheptanamide]: the IC50 is below 100 nM.
For `COc1cc2ncnc(Nc3ccc(F)c(Cl)c3)c2cc1NC(=O)CCCC(=O)NO` [Compound 38, N^1-(4-(3-chloro-4-fluorophenylamino)-7-methoxyquinazolin-6-yl)-N^5-hydroxyglutaramide] the value was 1000 to 10000 nM.
`C#Cc1cccc(Nc2ncnc3cc(OC)c(NC(=O)CCCC(=O)NO)cc23)c1` [Compound 42, N^1-(4-(3-ethynylphenylamino)-7-methoxyquinazolin-6-yl)-N^5-hydroxyglutaramide]: the 50% inhibitory concentration (IC50) is 100 to 1000 nM.
Regarding `C#Cc1cccc(Nc2ncnc3cc(OC)c(NC(=O)CCCCC(=O)NO)cc23)c1` [Compound 43, N^1-(4-(3-ethynylphenylamino)-7-methoxyquinazolin-6-yl)-N^6-hydroxyadipamide], the IC50 was 100 to 1000 nM.
For the compound `Nc1cc(Br)ccc1NC(=O)COc1ccc2ncnc(Nc3ccc(F)c(Cl)c3)c2c1` [Compound 45], the IC50 is above 10000 nM.
For `C[C@@H](Nc1ncnc2ccc(OCCCCCC(=O)NO)cc12)c1ccccc1` [Compound 50] the value was 100 to 1000 nM.
`O=C(/C=C/c1ccc(OCCOc2ccc3ncnc(Nc4ccc(F)c(Cl)c4)c3c2)cc1)NO` [Compound 63]: the IC50 lay in the range of 100 to 1000 nM.
For `COc1cc2ncnc(Nc3ccc(F)c(Cl)c3)c2cc1OCCOc1ccc(/C=C/C(=O)NO)cc1` [Compound 66, (E)-3-(4-(2-(4-(3-chloro-4-fluorophenylamino)-7-methoxyquinazolin-6-yloxy)ethoxy)phenyl)-N-hydroxyacrylamide] the value was 100 to 1000 nM.
For `COCCOc1cc2ncnc(Nc3ccc(F)c(Cl)c3)c2cc1NC(=O)CCCC(=O)NO` [Compound 68, N^1-(4-(3-chloro-4-fluorophenylamino)-7-(2-methoxyethoxy)quinazolin-6-yl)-N^5-hydroxyglutaramide] the value was 1000 to 10000 nM; for `COCCOc1cc2ncnc(Nc3ccc(F)c(Cl)c3)c2cc1NC(=O)CCCCC(=O)NO` [Compound 69, N^1-(4-(3-chloro-4-fluorophenylamino)-7-(2-methoxyethoxy)quinazolin-6-yl)-N^6-hydroxyadipamide], 100 to 1000 nM.
With `COc1cc2ncnc(N[C@H](C)c3ccccc3)c2cc1OCCCCCC(=O)NO` [Compound 77, (R)—N-hydroxy-6-(7-methoxy-4-(1-phenylethylamino)quinazolin-6-yloxy)-hexanamide] the figure was below 100 nM; with `C[C@@H](Nc1ncnc2ccc(OCCCCCC(=O)NO)cc12)c1ccccc1` [Compound 78, (R)—N-hydroxy-6-(4-(1-phenylethylamino)-quinazolin-6-yloxy)hexanamide], below 100 nM; with `COc1cc2ncnc(N[C@@H](C)c3ccccc3)c2cc1OCCCCCCC(=O)NO` [Compound 80, (S)—N-hydroxy-7-(7-methoxy-4-(1-phenylethylamino)quinazolin-6-yloxy)heptanamide], below 100 nM.
As to `COc1cc2ncnc(N[C@H](C)c3ccc(Cl)cc3)c2cc1OCCCCCCC(=O)NO` [Compound 82, (R)-7-(4-(1-(4-chlorophenyl)ethylamino)-7-methoxyquinazolin-6-yloxy)-N-hydroxyheptanamide], the half-maximal inhibitory concentration (IC50) lay within 100 to 1000 nM.
On to `COc1ccc([C@@H](C)Nc2ncnc3cc(OC)c(OCCCCCCC(=O)NO)cc23)cc1` [Compound 83, (R)—N-hydroxy-7-(7-methoxy-4-(1-(4-methoxyphenyl)ethylamino)quinazolin-6-yloxy)-heptanamide], for which the IC50 is below 100 nM.
For `COc1cc2ncnc(NCCc3ccccc3)c2cc1OCCCCCCC(=O)NO` [Compound 84] the value was below 100 nM; for `COc1cc2ncnc(NCc3ccc(F)cc3)c2cc1OCCCCCCC(=O)NO` [Compound 86, 7-(4-(4-fluorobenzylamino)-7-methoxyquinazolin-6-yloxy)-N-hydroxyheptanamide], below 100 nM; for `COc1cc2ncnc(NCc3ccc(F)c(F)c3)c2cc1OCCCCCCC(=O)NO` [Compound 87, 7-(4-(3,4-difluorobenzylamino)-7-methoxyquinazolin-6-yloxy)-N-hydroxyheptanamide], below 100 nM.
Consider `COc1cc2ncnc(NCc3cccc(Br)c3)c2cc1OCCCCCCC(=O)NO` [Compound 89, 7-(4-(3-bromobenzylamino)-7-methoxyquinazolin-6-yloxy)-N-hydroxyheptanamide], for which the IC50 is below 100 nM.
With `C#Cc1cccc(CNc2ncnc3cc(OC)c(OCCCCCCC(=O)NO)cc23)c1` [Compound 90, 7-(4-(3-ethynylbenzylamino)-7-methoxyquinazolin-6-yloxy)-N-hydroxyheptanamide] the figure was below 100 nM.
With `COc1cc2ncnc(Nc3ccc(F)c(Cl)c3)c2cc1OCCOc1ccc(CC(=O)NO)cc1` [Compound 91], the IC50 fell in the range of 1000 to 10000 nM.
For `COc1cc2ncnc(Nc3ccc(F)c(Cl)c3)c2cc1NC(=O)Nc1ccc(C(=O)NO)cc1` [Compound 93] the value was 1000 to 10000 nM; for `COc1cc2ncnc(Nc3ccc(F)c(Cl)c3)c2cc1OCCCCCCC(=O)N(C)O` [Compound 94], above 10000 nM; for `COc1cc2ncnc(Nc3ccc(F)c(Cl)c3)c2cc1OCCCCCCN(O)C(C)=O` [Compound 103, N-(6-(4-(3-chloro-4-fluorophenylamino)-7-methoxyquinazolin-6-yloxy)hexyl)-N-hydroxyacetamide], above 10000 nM.
On to `COc1cc2ncnc(Nc3ccc(F)c(Cl)c3)c2cc1OCCNCc1ccc(C(=O)NO)cc1` [Compound 107], for which the 50% inhibitory concentration (IC50) lay in the range of 100 to 1000 nM.
Take `COc1cc2ncnc(Nc3ccc(F)c(Cl)c3)c2cc1OCCN(CCO)CCCC(=O)NO` [Compound 118]: the concentration for half-maximal inhibition (IC50) lay within 1000 to 10000 nM.
In the case of `COc1cc2ncnc(Nc3ccc(F)c(Cl)c3)c2cc1OCCNCc1ccc(C#CC(=O)NO)cc1` [Compound 121], the IC50 was above 10000 nM.
With `COc1cc2ncnc(Nc3ccc(F)c(Cl)c3)c2cc1-c1ccc(C#CCCC(=O)NO)o1` [Compound 124] the figure was above 10000 nM.
With `COc1cc2ncnc(Nc3ccc(F)c(Cl)c3)c2cc1-c1ccc(C#CCCCC(=O)NO)o1` [Compound 125] the figure was 100 to 1000 nM; with `COc1cc2ncnc(Nc3ccc(F)c(Cl)c3)c2cc1C#CCCC(=O)NO` [Compound 138], 1000 to 10000 nM.
As to `COc1cc2ncnc(Nc3ccc(F)c(Cl)c3)c2cc1C#CCCCC(=O)NO` [Compound 139, 6-(4-(3-chloro-4-fluorophenylamino)-7-methoxyquinazolin-6-yl)-N-hydroxyhex-5-ynamide], the IC50 lay in the range of 1000 to 10000 nM.
For `COc1cc2ncnc(Nc3ccc(F)c(Cl)c3)c2cc1CCCCC(=O)NO` [Compound 144, 5-(4-(3-chloro-4-fluorophenylamino)-7-methoxyquinazolin-6-yl)-N-hydroxypentanamide], the IC50 was in the range of 100 to 1000 nM.
With `COc1cc2ncnc(Nc3ccc(F)c(Cl)c3)c2cc1Oc1ccc(C#CCCCC(=O)NO)cc1` [Compound 205] the figure was 1000 to 10000 nM.
